The source of these data is US6930104B2, “Heterocyclic derivatives” (Takeda Chemical Industries, Ltd., priority 2001, dated 2005).

Structures are written as SMILES.

`CCOc1ccc(C(=O)N2c3ccccc3C(N3CCCc4ccccc43)CC2C)cc1OCC` (stereo not drawn) [Example 102, 1-(3,4-Diethoxybenzoyl)-2-methyl-4-(1,2,3,4-tetrahydroquinolin-1-yl)-1,2,3,4-tetrahydroquinoline] came in with a melting point of 157 to 158 °C.
For `COc1ccc(C(=O)N2c3ccccc3C(n3c4ccccc4c4ccccc43)CC2CCCNC(=O)c2ccccc2)cc1OC` (stereo not drawn) [Example 124, N-[3-[2,4-cis-4-(9H-9-Carbazolyl)-1-(3,4-dimethoxybenzoyl)-1,2,3,4-tetrahydroquinolin-2-yl]propyl]-benzamide], the melting point is 236 to 237 °C.
As for `CCCC1CC(n2c3ccccc3c3ccccc32)c2ccccc2N1C(=O)c1ccc(OCC)c(OC)c1` (stereo not drawn) [Example 146, 2,4-cis-4-(9H-9-Carbazolyl)-1-(4-ethoxy-3-methoxybenzoyl)-2-propyl-1,2,3,4-tetrahydroquinoline], the figure is 221 to 222 °C.
As for `CCCCC1C=C(n2c3ccccc3c3ccccc32)c2ccccc2N1C(=O)c1ccc(OC)c(OC)c1` (stereo not drawn) [Example 59, 2-Butyl-4-(9H-9-carbazolyl)-1-(3,4-dimethoxybenzoyl)-1,2-dihydroquinoline], the figure is 174 to 175 °C; as for `COc1ccc(C(=O)N2CCC(N3CCc4ccccc43)c3ccccc32)cc1OC` (stereo not drawn) [Example 2, 4-(2,3-Dihydro-1H-indol-1-yl)-1-(3,4-dimethoxybenzoyl)-1,2,3,4-tetrahydroquinoline], 121 to 123 °C.
In the case of `CCOc1ccc(C(=O)N2c3ccccc3C(N3CCCc4ccccc43)CC2C)cc1OC` (stereo not drawn) (hydrate or solvate) [Example 103, 1-(4-Ethoxy-3-methoxybenzoyl)-2-methyl-4-(1,2,3,4-tetrahydroquinolin-1-yl)-1,2,3,4-tetrahydroquinoline] it was 140 to 142 °C; in that of `COc1ccc(C(=O)N2c3ccccc3C(n3c4ccccc4c4ccccc43)=CC2C)cc1OC` (stereo not drawn) [Example 161, 4-(9H-9-Carbazolyl)-1-(3,4-dimethoxybenzoyl)-2-methyl-1,2-dihydroquinoline], 184 to 185 °C; in that of `COc1ccc(C(=O)N2c3ccccc3C(N3CCCc4cc(OCc5ccccc5)ccc43)CC2C)cc1OC` (stereo not drawn) (hydrate or solvate) [Example 101, 2,4-cis-4-(6-Benzyloxy-1,2,3,4-tetrahydroquinolin-1-yl)-1-(3,4-dimethoxybenzoyl)-2-methyl-1,2,3,4-tetrahydroquinoline], 164 to 165 °C.
As for `COc1ccc(C(=O)N2c3ccccc3C(n3c4ccccc4c4ccccc43)CC2CCCO)cc1OC` (stereo not drawn) [Example 118, 3-[2,4-cis-4-(9H-9-Carbazolyl)-1-(3,4-dimethoxybenzoyl)-1,2,3,4-tetrahydroquinolin-2-yl]-1-propanol], the melting point lay in the range of 192 to 194 °C.
As for `CCCCC1CC(n2c3ccccc3c3ccccc32)c2ccccc2N1C(=O)c1ccc(OC)c(OC)c1` (stereo not drawn) [Example 40, 2,4-cis-2-Butyl-4-(9H-9-carbazolyl)-1-(3,4-dimethoxybenzoyl)-1,2,3,4-tetrahydroquinoline], the figure is 213 °C; as for `COc1ccc(C(=O)N2c3ccccc3C(N3CCCc4cc(C)ccc43)CC2C)cc1OC` (stereo not drawn) [Example 83, 2,4-cis-1-(3,4-Dimethoxybenzoyl)-2-methyl-4-(6-methyl-1,2,3,4-tetrahydroquinolin-1-yl)-1,2,3,4-tetrahydroquinoline], 184 to 185 °C.
In the case of `CCC1CC(n2c3ccccc3c3ccccc32)c2ccccc2N1C(=O)c1ccc(SC)c(OC)c1` (stereo not drawn) [Example 150, 2,4-cis-9-[2-Ethyl-1-(3-methoxy-4-methylthiobenzoyl)-1,2,3,4-tetrahydro-4-quinolinyl]-9H-carbazole] it was 210 to 211 °C.
As for `CCCC(=O)NCCCC1CC(n2c3ccccc3c3ccccc32)c2ccccc2N1C(=O)c1ccc(OC)c(OC)c1` (stereo not drawn) [Example 122, N-[3-[2,4-cis-4-(9H-9-Carbazolyl)-1-(3,4-dimethoxybenzoyl)-1,2,3,4-tetrahydroquinolin-2-yl]propyl]butanamide], the figure is 199 to 201 °C.
`COc1ccc(C(=O)N2c3ccccc3C(n3c4ccccc4c4ccccc43)C(O)C2C)cc1OC` (stereo not drawn) (hydrate or solvate) [Example 162, 4-(9H-9-Carbazolyl)-1-(3,4-dimethoxybenzoyl)-3-hydroxy-2-methyl-1,2,3,4-tetrahydroquinoline] displayed a melting point of 194 to 195 °C.
In the case of `COc1ccc(C(=O)N2c3ccccc3C(N3CCSc4ccccc43)CC2C)cc1OC` (stereo not drawn) [Example 72, 4-[1-(3,4-Dimethoxybenzoyl)-2-methyl-1,2,3,4-tetrahydroquinolin-4-yl]-3,4-dihydro-2H-1,4-benzothiazine] it was 113 to 114 °C; in that of `CCOC(=O)CCCCC1CC(n2c3ccccc3c3ccccc32)c2ccccc2N1C(=O)c1ccc(OC)cc1` (stereo not drawn) [Example 157, Ethyl 5-[4-(9H-9-carbazolyl)-1-(4-methoxybenzoyl)-1,2,3,4-tetrahydro-2-quinolinyl]pentanoate], 167 to 168 °C; in that of `COc1ccc(C(=O)N2c3ccccc3C(n3c4ccccc4c4ccccc43)CC2CCCc2ccccc2)cc1OC` (stereo not drawn) [Example 116, 9-[2,4-cis-1-(3,4-Dimethoxybenzoyl)-2-(3phenylpropyl)-1,2,3,4-tetrahydroquinolin-4-yl]-9H-carbazole], 225 to 226 °C.
With `COc1ccc(C(=O)N2CCC(N3CC4(CCN(Cc5ccccc5)CC4)c4ccccc43)c3ccccc32)cc1OC` (stereo not drawn), the melting point fell in the range of 155 to 157 °C.
As for `COc1ccc(C(=O)N2c3ccccc3C(N3CCc4ccccc43)CC2C)cc1OC` (stereo not drawn) [Example 61, 4-(2,3-Dihydro-1H-indol-1-yl)-1-(3,4-dimethoxybenzoyl)-2-methyl-1,2,3,4-tetrahydroquinoline], the figure is 147 to 148 °C; as for `CCCCC1CC(n2c3ccccc3c3ccccc32)c2ccccc2N1C(=O)c1ccc(SC)c(OC)c1` (stereo not drawn) [Example 151, 2,4-cis-9-[2-Butyl-1-(3-methoxy-4-methylthiobenzoyl)-1,2,3,4-tetrahydro-4-quinolinyl]-9H-carbazole], 230 to 231 °C; as for `CCCC1CC(N2CCCc3ccccc32)c2ccccc2N1C(=O)c1ccc(OC)c(OC)c1` (stereo not drawn) [Example 75, 2,4-cis-1-(3,4-Dimethoxybenzoyl)-2-propyl-4-(1,2,3,4-tetrahydroquinolin-1-yl)-1,2,3,4-tetrahydroquinoline], 176 to 177 °C.
In turn, `COc1ccc(C(=O)N2c3ccccc3C(N3CCCc4ccc(C)cc43)CC2C)cc1OC` (stereo not drawn) [Example 81, 2,4-cis-1-(3,4-Dimethoxybenzoyl)-2-methyl-4-(7-methyl-1,2,3,4-tetrahydroquinolin-1-yl)-1,2,3,4-tetrahydroquinoline] came in with a melting point of 197 to 198 °C.
For `COc1ccc(C(=O)N2c3ccccc3C(N3CCc4ccccc4C3)CC2C)cc1OC` (stereo not drawn) [Example 73, 1-(3,4-Dimethoxybenzoyl)-2-methyl-4-(1,2,3,4-tetrahydroisoquinolin-2-yl)-1,2,3,4-tetrahydroquinoline], the melting point is 128 to 129 °C.
In the case of `COc1ccc(C(=O)N2c3ccccc3C(N3CCCc4c(Cl)cccc43)=CC2C)cc1OC` (stereo not drawn) [Example 160, 4-(5-Chloro-1,2,3,4-tetrahydroquinolin-1-yl)-1-(3,4-dimethoxybenzoyl)-2-methyl-1,2-dihydroquinoline] it was 162 to 163 °C; in that of `COc1ccc(C(=O)N2c3ccccc3C(N3CCCc4cc(C(C)C)ccc43)C(O)C2C)cc1OC` (stereo not drawn) [Example 84, 2,3-trans-2,4-cis-1-(3,4-Dimethoxybenzoyl)-3-hydroxy-4-(6-isopropyl-1,2,3,4-tetrahydroquinolin-1-yl)-2-methyl-1,2,3,4-tetrahydroquinoline], 165 to 166 °C; in that of `CCCCC1CC(n2c3ccccc3c3ccccc32)c2ccccc2N1C(=O)c1ccc(OCC)c(OC)c1` (stereo not drawn) [Example 148, 2,4-cis-9-[2-Butyl-1-(4-ethoxy-3-methoxybenzoyl)-1,2,3,4-tetrahydro-4-quinolinyl]-9H-carbazole], 231 to 232 °C.
In the case of `CCCCC1CC(n2c3ccccc3c3ccccc32)c2ccccc2N1C(=O)c1ccc(OCC)c(OCC)c1` (stereo not drawn) [Example 149, 2,4-cis-9-[2-Butyl-1-(3,4-diethoxybenzoyl)-1,2,3,4-tetrahydro-4-quinolinyl]-9H-carbazole] it was 232 to 233 °C; in that of `COc1ccc(C(=O)N2c3ccccc3C(n3c4ccccc4c4ccccc43)CC2CC(C)C)cc1OC` (stereo not drawn) [Example 41, 2,4-cis-4-(9H-9-Carbazolyl)-1-(3,4-dimethoxybenzoyl)-2-isobutyl-1,2,3,4-tetrahydroquinoline], 191 to 193 °C.
As for `COc1ccc(C(=O)N2c3ccccc3C(N3CCCc4cc(C(C)C)ccc43)CC2C)cc1OC` (stereo not drawn) [Example 85, 2,4-cis-4-(6-Isopropyl-1,2,3,4-tetrahydroquinolin-1-yl)-1-(3,4-dimethoxybenzoyl)-2-methyl-1,2,3,4-tetrahydroquinoline], the figure is 187 to 188 °C.
In the case of `COc1ccc(C(=O)N2c3ccccc3C(n3c4ccccc4c4ccccc43)CC2COCc2ccccc2)cc1OC` (stereo not drawn) [Example 43, 2-[(Benzyloxy)methyl]-4-(9H-9-carbazolyl)-1-(3,4-dimethoxybenzoyl)-1,2,3,4-tetrahydroquinoline], the melting point is 203 to 204 °C.
As for `CCOc1ccc(C(=O)N2c3ccccc3C(n3c4ccccc4c4ccccc43)CC2C)cc1OC` (stereo not drawn) (hydrate or solvate) [Example 143, 2,4-cis-4-(9H-9-Carbazolyl)-1-(4-ethoxy-3-methoxybenzoyl)-2-methyl-1,2,3,4-tetrahydroquinoline], the figure is 214 to 215 °C; as for `CCCC1CC(n2c3ccccc3c3ccccc32)c2ccccc2N1C(=O)c1ccc(OCC)c(OCC)c1` (stereo not drawn) (hydrate or solvate) [Example 147, 2,4-cis-4-(9H-9-Carbazolyl)-1-(3,4-diethoxybenzoyl)-2-propyl-1,2,3,4-tetrahydroquinoline], 220 °C; as for `COc1ccc(C(=O)N2c3ccccc3C(N3CCSc4ccccc43)CC2C)cc1OC` (racemic) [Example 20, 2,4-cis-4-(3,4-Dihydro-2H-1,4-benzothiazin-4-yl)-1-(3,4-dimethoxybenzoyl)-2-methyl-1,2,3,4-tetrahydroquinoline], 178 to 180 °C.
